Results reported in PMC7773179, “Development and application of high-throughput screens for the discovery of compounds that disrupt ErbB4 signaling: Candidate cancer therapeutics” (PLoS ONE, 2020).

Assays:
[1] = tested on: BaF3/EGFR+ErbB4 cells; assay: IL3-dependent proliferation of BaF3/EGFR+ErbB4 cells, semi-automated MTT assay; details: for IC50: Mus musculus, BaF3, 120 h; for IC50 against 0.1 nM IL3: three independent trials, 120 h MTT, NA = not active
Description: As noted earlier, the BaF3/EGFR+ErbB4 cells are IL3 dependent and this dependency can be rescued by stimulation of ErbB4 coupling to cell proliferation [8]. Therefore, the specificity of each of the 19 candidate ErbB4 inhibitors was tested by assaying inhibition of ErbB4-dependent and IL3-dependent cellular proliferation in parallel.

[2] = biological target: T1, ErbB4 (Homo sapiens, UniProt Q15303); assay: phospho-ErbB4 sandwich ELISA: stimulation of ErbB4 tyrosine phosphorylation in CEM/ErbB4 cells; assay type: cell-based; details: for Emax: percentage of ErbB4 tyrosine phosphorylation stimulated by 10 nM NRG1β, read-out: ErbB4 Tyrosine Phosphorylation Emax ± SE; for EC50: semi-automated, 0–30 μM, at least three independent trials, read-out: ErbB4 Tyrosine Phosphorylation EC50 ± SE
T1 construct: expressed in transfected cells; host or cells: CEM/ErbB4 cells
From the text: Our ultimate goal is the identification of ErbB4 partial agonists that inhibit coupling of ErbB4 to cell proliferation, preferably through stimulation of phosphorylation-dependent ErbB4 turnover and degradation. Thus, the first goal of these experiments is to develop and deploy an assay for stimulation of ErbB4 tyrosine phosphorylation. The CEM/ErbB4 cell line previously validated for assaying ligand-induced ErbB4 tyrosine phosphorylation was used to develop a 96-well assay for stimulation and inhibition of ErbB4 tyrosine phosphorylation. Briefly, ErbB4 tyrosine phosphorylation was assayed using a “sandwich” enzyme-linked immunosorbent assay (ELISA) kit (R&D Systems) that features an anti-ErbB4 capture antibody and an anti-phosphotyrosine detection antibody.
Lysates generated by a previously established protocol for stimulating ErbB4 tyrosine phosphorylation in CEM/ErbB4 cells were used to develop and evaluate the ELISA conditions. Briefly, the CEM/ErbB4 cells were starved for 24 hours in serum- and factor-free base medium (RPMI) before being stimulated for seven minutes on ice with NRG2β (full agonist positive control), NRG2β/Q43L (partial agonist positive control), or NRG2β diluent (mock stimulation negative control). The cells were then lysed, and the lysates were immediately assayed for ErbB4 tyrosine phosphorylation or stored at -80°C until assayed.
Ligand-induced ErbB4 tyrosine phosphorylation was stimulated using a published protocol. Briefly, the CEM/ErbB4 cells were starved for 24 hours in serum- and factor-free base medium (RPMI) before being stimulated for 7 minutes on ice with an ErbB4 ligand (NRG1β, NRG2β, or NRG2β/Q43L) or candidate small molecule ErbB4 partial agonists. The cells were then lysed using a published protocol, and the lysates were immediately assayed for ErbB4 tyrosine phosphorylation or stored at -80°C until assayed.
ErbB4 tyrosine phosphorylation was analyzed using a 96-well “sandwich” enzyme-linked immunosorbent assay (ELISA) kit from R&D Systems (Catalog number DYC2115-2), which features an anti-ErbB4 capture antibody and an anti-phosphotyrosine antibody that is coupled to horseradish peroxidase (HRP). First, each well in a 96-well flat-bottom plate (ELISA plate) was coated with the anti-ErbB4 capture antibody, which recognizes the amino terminus of ErbB4. Nonspecific binding sites were then treated with a blocking buffer (1% BSA in PBS). Lysate samples containing ErbB4 were then added to the wells and incubated to permit ErbB4 binding to the immobilized anti-ErbB4 antibody. Then, an anti-phosphotyrosine antibody tagged with HRP was used to detect and visualize the phosphorylated tyrosine residues of the immobilized ErbB4 molecules. Oxidation of 3,3´,5,5´-tetramethylbenzidine by HRP (stopped using sulfuric acid) is indicative of ErbB4 tyrosine phosphorylation and was detected by measuring absorption at 450 nm. The data generated during the course of validating these assay conditions can be found in a (S1 Data).
A Beckman Coulter Biomek 4000 automated liquid handling system was used to convert our standard, batch method for agonist stimulation of ErbB4 tyrosine phosphorylation to a semi-automated 96-well methodology. […] After stimulation, lysis buffer was added to each well and incubated for 20 minutes at 4°C with shaking. Following incubation, the plates were centrifuged at 3200 RCF for 20 minutes at 4°C.

[3] = tested on: BaF3/EGFR+ErbB4 cells; assay: ErbB4-dependent (NRG1β-induced, IL3-independent) proliferation of BaF3/EGFR+ErbB4 cells, semi-automated MTT assay; assay type: cell-based, Mouse; details: for selective and potent inhibition of ErbB4-dependent cell proliferation (in words): ErbB4-dependent versus IL3-dependent proliferation; for IC50: Mus musculus, BaF3, read-out: IC50 against 0.3 nM NRG1β, three independent trials; for IC50 / NRG1β Emax ± SE in the presence of candidate: 120 h MTT; for NRG1β Emax ± SE in the presence of candidate: increasing NRG1β, three trials
Description: This proliferation is dependent upon exogenous ErbB4 expression.
As noted earlier, the BaF3/EGFR+ErbB4 cells are IL3 dependent and this dependency can be rescued by stimulation of ErbB4 coupling to cell proliferation. Therefore, the specificity of each of the 19 candidate ErbB4 inhibitors was tested by assaying inhibition of ErbB4-dependent and IL3-dependent cellular proliferation in parallel.

[4] = read-out: IC50 against 0.1 nM IL3
[5] = read-out: IC50 against 0.1 nM IL3, extrapolated value

T1 sequence (Q15303 26-1308): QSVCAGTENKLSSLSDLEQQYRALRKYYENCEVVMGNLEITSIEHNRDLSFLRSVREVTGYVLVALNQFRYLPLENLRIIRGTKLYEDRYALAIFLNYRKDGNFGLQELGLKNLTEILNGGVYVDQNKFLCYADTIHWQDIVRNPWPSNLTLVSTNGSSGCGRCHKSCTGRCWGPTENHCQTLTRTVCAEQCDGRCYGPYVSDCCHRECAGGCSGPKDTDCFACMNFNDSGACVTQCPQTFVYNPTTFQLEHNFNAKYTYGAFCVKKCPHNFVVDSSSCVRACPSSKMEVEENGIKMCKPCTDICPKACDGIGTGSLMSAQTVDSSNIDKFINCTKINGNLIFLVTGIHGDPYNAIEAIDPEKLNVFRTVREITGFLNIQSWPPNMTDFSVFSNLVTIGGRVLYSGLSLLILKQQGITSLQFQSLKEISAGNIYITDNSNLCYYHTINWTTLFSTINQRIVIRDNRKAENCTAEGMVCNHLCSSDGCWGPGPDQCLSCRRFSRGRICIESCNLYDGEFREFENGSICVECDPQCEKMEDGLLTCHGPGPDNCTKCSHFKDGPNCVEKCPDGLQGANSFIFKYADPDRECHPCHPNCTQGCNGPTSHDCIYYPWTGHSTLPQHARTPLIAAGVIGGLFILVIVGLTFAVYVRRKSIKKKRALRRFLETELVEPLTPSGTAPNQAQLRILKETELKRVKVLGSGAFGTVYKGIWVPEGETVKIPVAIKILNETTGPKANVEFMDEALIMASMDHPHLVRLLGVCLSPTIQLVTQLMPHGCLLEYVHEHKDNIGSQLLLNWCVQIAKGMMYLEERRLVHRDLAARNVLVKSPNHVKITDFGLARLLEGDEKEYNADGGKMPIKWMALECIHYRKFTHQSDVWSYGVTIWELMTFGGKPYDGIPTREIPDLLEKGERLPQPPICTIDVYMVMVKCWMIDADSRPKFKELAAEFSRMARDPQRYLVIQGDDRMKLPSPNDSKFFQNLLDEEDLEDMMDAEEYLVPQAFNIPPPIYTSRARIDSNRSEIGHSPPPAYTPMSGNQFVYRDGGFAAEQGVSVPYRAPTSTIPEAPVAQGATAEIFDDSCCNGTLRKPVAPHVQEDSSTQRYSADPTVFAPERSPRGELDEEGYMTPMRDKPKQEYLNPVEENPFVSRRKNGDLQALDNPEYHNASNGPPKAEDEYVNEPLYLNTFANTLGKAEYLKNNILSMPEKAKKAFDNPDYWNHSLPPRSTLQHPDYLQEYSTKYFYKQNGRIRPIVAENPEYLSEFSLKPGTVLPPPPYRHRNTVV

Row | Compound | IC50 [1, 4] | Emax [2] | EC50 [2] | selective and potent inhibition of ErbB4-dependent cell proliferation (in words) [3] | IC50 ([3]; NA = not active) | NRG1β Emax ± SE in the presence of candidate ([3]; candidate 30 μM) | IC50 [1, 5] | IC50 against 0.1 nM IL3 [1] | IC50 ([3]; *Extrapolated value) | inhibition of NRG1β-stimulated ErbB4-dependent proliferation (in words) ([3]; candidate 30 μM)
1 | CCC(=O)NC(N(Cc1ccccc1)Cc1ccccc1)C(Cl)(Cl)Cl (centres unmarked) [SR-33483] | 28 µM | 4.7 ± 1.1% | 0.47 ± 0.38 µM | selectively and potently inhibit | 6 µM | 0 AU |  |  |  | 
2 | O=S(=O)(NCc1cccnc1)c1ccc(Br)cc1Br [SR-33485] |  | 3 ± 0.9% | < 0.3 µM |  | 13 µM | 0.01 ± 0.02 AU | 38 µM |  |  | 
3 | CCCOc1ccc(C(=O)C(CCCCC(CN(C)C)C(=O)c2ccc(OCCC)cc2)CN(C)C)cc1 (centres unmarked) [SR-33486] | 0.45 µM | 5.9 ± 2.8% | < 0.3 µM | selectively and potently inhibit | 0.11 µM | 0 AU |  |  |  | 
4 | O=C(Nc1cccc(O)c1)c1cc2nc(-c3ccccc3)cc(-c3ccccc3)n2n1 [SR-33487] |  | 2.7 ± 0.2% | < 0.3 µM | selectively and potently inhibit | 6.8 µM | 0.07 ± 0.01 AU | 2100 µM |  |  | 
5 | CCOC(=O)C1=C(N)OC2=C(C(=O)CC(C)(C)C2)C1C1CCCCC1 (centres unmarked) [SR-33491] |  | 2.8 ± 0.4% | 0.68 ± 0.36 µM | selectively and potently inhibit | 29 µM | 0.15 ± 0.02 AU |  | no inhibition |  | 
6 | O=C(CC1c2ccccc2Oc2ccccc21)NCCOc1ccccc1 [SR-33492] |  | 1.8 ± 0.2% | 4.1 ± 2.9 µM | selectively and potently inhibit | 12 µM | 0.03 ± 0.01 AU | 81 µM |  |  | 
7 | O=C(c1nn2c(c1Cl)NC(c1cccs1)CC2C(F)(F)F)N(Cc1ccccc1)Cc1ccccc1 (centres unmarked) [SR-33493] | 15 µM | 2.1 ± 3.8% | < 0.3 µM |  | 5.6 µM | 0 AU |  |  |  | 
8 | O=C1NC2=Nc3ccccc3SC(c3ccccc3)=C2C(c2ccc(O)cc2)N1 (centres unmarked) [SR-33494] |  | 2.3 ± 0.4% | < 0.3 µM | selectively and potently inhibit | 7 µM | 0 AU | 32 µM |  |  | 
9 | O=[N+]([O-])c1ccc(CN2CCN(C3CCC(c4ccccc4)CC3)CC2)cc1 (centres unmarked) [SR-33497] |  | 1.8 ± 0.5% | < 0.3 µM |  |  | 0.09 ± 0.02 AU | 390 µM |  | 47 µM | 
10 | O=C1NC(=O)/C(=C\c2ccc(OCc3ccc4ccccc4c3)c(I)c2)N1 [SR-33498] | 4.8 µM | 1.4 ± 0.4% | 1.5 ± 0.6 µM |  | 2.3 µM | 0 AU |  |  |  | 
11 | COc1cc(CNCC2CCNCC2)cc(Cl)c1OCc1ccc(C)cc1 [SR-33507] | 0.72 µM | 2.9 ± 0.4% | < 0.3 µM |  | 0.39 µM | 0 AU |  |  |  | completely inhibits
12 | COc1ccc(C2CCCN2C(=O)c2c(-c3ccccc3Cl)noc2C)cc1 (centres unmarked) [SR-33509] |  | 1.4 ± 0.3% | 0.38 ± 0.25 µM |  |  | 0.11 ± 0.02 AU |  | fails to inhibit | 32 µM | 
13 | Cc1nn(-c2ccccc2)c2c1C(c1ccccc1F)SCC(=O)N2 (centres unmarked) [SR-33510] | 29 µM | 1.2 ± 0.4% | 2 ± 0.8 µM |  | 11 µM | 0.03 ± 0.01 AU |  |  |  | 
14 | CCOc1ccc(CN(C(=O)[C@H](N)Cc2c[nH]c3ccccc23)C2CC2)cc1 [SR-33511] | 13 µM | 5.2 ± 1% | 2.1 ± 1.3 µM |  | 6.8 µM | 0 AU |  |  |  | 
